Results on 23 compounds are retold here after ChEMBL document CHEMBL3352370, “Substrate derived peptidic α-ketoamides as inhibitors of the malarial protease PfSUB1” (Bioorg Med Chem Lett, 2014).

The structures appear in SMILES notation. Numbered stars: 1 amine (or outer) side, 2 acyl side, 3 side chain; on linkers, the order of the positions; unused ones are H or OH. Square brackets hold non-standard residues; d marks the D form. Peptide text beside a SMILES is read from it. ξ: configuration not given here. ξ3Amino2oxobutanoyl = CC(N[*:1])C(=O)C(=O)[*:2]; GABA = NCCCC(=O)O; βAla = NCCC(=O)O Where only a bound is given, the exact number is not on record here.

The assay concerns the target T1, Subtilisin-like protease 1 (Plasmodium falciparum, UniProt O61142).
T1 sequence (O61142 whole entry): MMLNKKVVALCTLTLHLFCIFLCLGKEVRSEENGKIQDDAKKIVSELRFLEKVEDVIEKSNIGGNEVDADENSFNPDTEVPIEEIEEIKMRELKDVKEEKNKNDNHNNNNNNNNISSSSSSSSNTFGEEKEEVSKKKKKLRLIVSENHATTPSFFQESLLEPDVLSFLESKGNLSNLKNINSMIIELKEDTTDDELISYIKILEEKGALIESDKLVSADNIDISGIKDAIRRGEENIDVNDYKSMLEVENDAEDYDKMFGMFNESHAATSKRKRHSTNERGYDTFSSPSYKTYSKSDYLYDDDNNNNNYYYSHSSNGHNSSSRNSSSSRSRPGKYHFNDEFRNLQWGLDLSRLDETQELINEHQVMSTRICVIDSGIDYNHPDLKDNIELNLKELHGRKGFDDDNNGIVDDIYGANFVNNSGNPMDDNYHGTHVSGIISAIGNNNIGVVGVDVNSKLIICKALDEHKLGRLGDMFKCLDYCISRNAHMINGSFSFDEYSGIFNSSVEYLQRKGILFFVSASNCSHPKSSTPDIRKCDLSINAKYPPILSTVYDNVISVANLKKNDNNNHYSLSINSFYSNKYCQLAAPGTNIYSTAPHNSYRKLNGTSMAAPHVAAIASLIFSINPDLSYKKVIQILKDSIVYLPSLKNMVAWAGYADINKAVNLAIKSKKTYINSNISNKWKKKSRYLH
Nature of the assay: Inhibition of Plasmodium falciparum SUB1.
Regarding `O=C(CCCCCNC(=O)CCCC[C@@H]1SC[C@@H]2NC(=O)N[C@@H]21)NCCCCCC(=O)Nc1ccc2c(Cl)c(OCCc3ccccc3)oc(=O)c2c1`, 18 µM corresponded to half-maximal inhibition (IC50).
The same measure, in the same setting: the same measure for `CC[C@H](C)[C@H](NC(=O)[C@H](CCCCN)NC(C)=O)C(=O)N[C@H](C(=O)N[C@@H](C)C(=O)NC(C)C(=O)C(=O)NCCC(=O)O)[C@@H](C)O` (stereo partly drawn) (Ac-KITA[ξ3Amino2oxobutanoyl][βAla]-OH): 1 µM.
Still for that read-out and setting: the same measure for `Oc1ccc(C2Oc3c(c(O)cc4c3C3c5c(O)cc(O)c(O)c5OC(c5ccc(O)c(O)c5)(O4)C3O)CC2O)cc1O` (stereo not drawn): 0.3 µM.
`CC[C@H](C)[C@H](NC(=O)[C@H](CCCCN)NC(C)=O)C(=O)N[C@H](C(=O)N[C@@H](C)C(=O)NC(C)C(=O)C(=O)NCC(=O)O)[C@@H](C)O` (stereo partly drawn) (Ac-KITA[ξ3Amino2oxobutanoyl]G-OH): the IC50 (usually the point on the concentration scale where inhibition reaches its midpoint) is 10 µM.
With `COc1ccc(Nc2cc(C)c3cc(NC(=O)c4cc5ccccc5[nH]4)ccc3n2)cc1`, the inhibition constant Ki (commonly a dissociation constant, usually derived from enzyme kinetics or from competition with a known ligand) turned out to be 6 µM.
With `CC[C@H](C)[C@H](NC(C)=O)C(=O)N[C@H](C(=O)N[C@@H](C)C(=O)NC(CCC(=O)N(C)C)C(=O)C(=O)NCCC(=O)O)[C@@H](C)O` (stereo partly drawn), the concentration for half-maximal inhibition (IC50) is > 50 µM.
For `CC[C@H](C)[C@H](NC(C)=O)C(=O)N[C@H](C(=O)N[C@@H](C)C(=O)NC(C(=O)C(=O)NCCC(=O)O)c1ccccc1)[C@@H](C)O` (stereo partly drawn), the IC50 was > 50 µM.
Take `CC[C@H](C)[C@H](NC(C)=O)C(=O)N[C@H](C(=O)N[C@@H](C)C(=O)NC(Cc1ccccc1)C(=O)C(=O)NCCC(=O)O)[C@@H](C)O` (stereo partly drawn): the midpoint of inhibition, the IC50, lay at 100 µM.
As for `CC[C@@H](C)[C@H](NC(=O)[C@H](CCCCN)NC(C)=O)C(=O)N[C@H](C(=O)N[C@@H](C)C(=O)NC(CCC(N)=O)C(=O)C(=O)NCCC(=O)O)[C@@H](C)O` (stereo partly drawn), the IC50 worked out at 7 µM. Compared with the last compound, the IC50 is about 14-fold lower.
The same measure, in the same setting: the same measure for `CC[C@H](C)[C@H](NC(C)=O)C(=O)N[C@H](C(=O)NC1(C(=O)NC(C)C(=O)C(=O)NCCC(=O)O)CC1)[C@@H](C)O` (stereo partly drawn): > 50 µM; for `CC[C@H](C)[C@H](NC(C)=O)C(=O)N[C@H](C(=O)N[C@@H](C)C(=O)NC(C)C(=O)C(=O)NCCC(=O)O)[C@@H](C)O` (stereo partly drawn): 2.5 µM.
On the same count and under the same terms, the same measure for `CC[C@H](C)[C@H](NC(=O)[C@H](CCCCN)NC(C)=O)C(=O)N[C@H](C(=O)N[C@@H](C)C(=O)NC(C)C(=O)C(=O)NCCC(N)=O)[C@@H](C)O` (stereo partly drawn) (Ac-KITA[ξ3Amino2oxobutanoyl][βAla]-NH2): 38 µM.
Same read-out and setting: to `CC(=O)N[C@@H](C)C(=O)N[C@H](C(=O)NCC(=O)NC(C)C(=O)C(=O)NCCC(=O)O)[C@@H](C)O` (stereo partly drawn) belongs > 50 µM.
As for `CC[C@H](C)[C@H](NC(C)=O)C(=O)N[C@H](C(=O)NC(C)(C)C(=O)NC(C)C(=O)C(=O)NCCC(=O)O)[C@@H](C)O` (stereo partly drawn), the half-maximal inhibitory concentration (IC50) was > 50 µM.
On to `CC[C@H](C)[C@H](NC(C)=O)C(=O)N[C@H](C(=O)N[C@@H](C)C(=O)NC(C(=O)C(=O)NCCC(=O)O)C(C)C)[C@@H](C)O` (stereo partly drawn), for which half-maximal inhibition (IC50) required 20 µM.
On the same count and under the same terms, to `CC[C@H](C)[C@H](NC(C)=O)C(=O)N[C@H](C(=O)NCC(=O)NC(C(=O)C(=O)NCCC(=O)O)C(C)C)[C@@H](C)O` (stereo partly drawn) belongs 4.5 µM; to `CC[C@H](C)[C@H](NC(C)=O)C(=O)N[C@H](C(=O)N[C@@H](C)C(=O)NC(CCC(=O)O)C(=O)C(=O)NCCC(=O)O)[C@@H](C)O` (stereo partly drawn), 5 µM.
As to `CC[C@H](C)[C@H](NC(=O)[C@H](CCCCN)NC(C)=O)C(=O)N[C@H](C(=O)N[C@@H](C)C(=O)NC(C)C(=O)C(=O)NCCCC(=O)O)[C@@H](C)O` (stereo partly drawn) (Ac-KITA[ξ3Amino2oxobutanoyl][GABA]-OH), the IC50 amounted to 3.1 µM.
The same measure, in the same setting: to `CC[C@H](C)[C@H](NC(C)=O)C(=O)N[C@@H](C)C(=O)N[C@@H](C)C(=O)NC(C)C(=O)C(=O)NCCC(=O)O` (stereo partly drawn) belongs 30 µM; to `CCC(NC(=O)CNC(=O)[C@@H](NC(=O)[C@@H](NC(C)=O)[C@@H](C)CC)[C@@H](C)O)C(=O)C(=O)NCCC(=O)O` (stereo partly drawn), 1.2 µM; to `CC[C@H](C)[C@H](NC(C)=O)C(=O)N[C@H](C(=O)NCC(=O)NC(C)C(=O)C(=O)NCCC(=O)O)[C@@H](C)O` (stereo partly drawn), 0.9 µM.
As for `CC[C@H](C)[C@H](NC(C)=O)C(=O)N[C@H](C(=O)N[C@@H](C)C(=O)NC(C[C@@H]1CCNC1=O)C(=O)C(=O)NCCC(=O)O)[C@@H](C)O` (stereo partly drawn), the half-inhibitory concentration (IC50) is > 50 µM.
Regarding `O=C(Nc1ccc(-c2nc3cc(NC(=O)c4ccccc4)ccc3[nH]2)cc1)c1ccccc1`, the inhibition constant (Ki) was 8 µM.
